Data reported in patent US20240239741A1, “META-ESTER AROMATIC DIAMINES, METHOD FOR PRODUCING SAME, AND POLYIMIDE HAVING SAID META-ESTER AROMATIC DIAMINES AS RAW MATERIAL” (SEIKA CORPORATION, priority 2021, published 2024).
Like-named read-outs stand apart in the source and are kept apart here.

Assay: Solubility of Diamine in various kinds of solvents
Assay type: physicochemical
Settings: for solubility: organic solvent or mixture, thermodynamic from solid, Sample 30 mg/solvent 2 mL
Protocol: Melting points and solubilities in various kinds of solvents of the diamines obtained in the above-described Examples and Comparative Examples are shown in Table 1 below. In the following Table 1, the evaluation +++ indicates soluble at room temperature, the evaluation ++ indicates soluble by heating, the evaluation + indicates half-soluble by heating, and the evaluation − indicates insoluble in solvent.
Sample 30 mg/solvent 2 mL, the evaluation +++ indicates soluble at room temperature, the evaluation ++ indicates soluble by heating, the evaluation + indicates half-soluble by heating, and the evaluation − indicates insoluble.

[1] = MC (methyl cellosolve), MC (methyl cello solve), read-out: Solubility in MC
[2] = Acetone, read-out: Solubility in Acetone
[3] = Acetonitrile, read-out: Solubility in Acetonitrile
[4] = Chloroform, read-out: Solubility in Chloroform
[5] = DMF (N,N-dimethylformamide), read-out: Solubility in DMF
[6] = DMSO (dimethylsulfoxide), read-out: Solubility in DMSO
[7] = Ethyl acetate, read-out: Solubility in Ethyl acetate
[8] = Isopropanol, read-out: Solubility in Isopropanol
[9] = THF, read-out: Solubility in THF
[10] = Toluene, read-out: Solubility in Toluene
[11] = m-cresol, read-out: Solubility in m-cresol
[12] = Methanol, read-out: Solubility in Methanol

Structure (SMILES)	solubility [1]	solubility [2]	solubility [3]	solubility [4]	solubility [5]	solubility [6]	solubility [7]	solubility [8]	solubility [9]	solubility [10]	solubility [11]	solubility [12]	Solubility in the various kinds of solvents (in words)
Nc1ccc(C(=O)Oc2ccc(OC(=O)c3ccc(N)cc3)cc2)cc1 [Com. Ex. 1, 1,4-bis(4-aminobenzoyloxy)benzene, reference compound]	< 15 mg/mL	< 15 mg/mL	< 15 mg/mL	< 15 mg/mL	< 15 mg/mL	< 15 mg/mL	< 15 mg/mL	< 15 mg/mL	< 15 mg/mL	< 15 mg/mL	< 15 mg/mL	–	hot-dissolved only in DMF
Cc1cc(OC(=O)c2ccc(N)cc2)ccc1OC(=O)c1ccc(N)cc1 [Com. Ex. 2, 2,5-bis(4-aminobenzoyloxy)toluene, reference compound]	< 15 mg/mL	< 15 mg/mL	< 15 mg/mL	< 15 mg/mL	> 15 mg/mL	< 15 mg/mL	< 15 mg/mL	< 15 mg/mL	< 15 mg/mL	< 15 mg/mL	< 15 mg/mL	< 15 mg/mL	hot-dissolved barely in a high-polar solvent
Nc1cccc(C(=O)Oc2ccc(C(c3ccc(OC(=O)c4cccc(N)c4)cc3)(C(F)(F)F)C(F)(F)F)cc2)c1 [Example 2, 2,2′-bis[4-(3-aminobenzoyloxy)phenyl]hexafluoropropane]	> 15 mg/mL	> 15 mg/mL	> 15 mg/mL	< 15 mg/mL	> 15 mg/mL	> 15 mg/mL	> 15 mg/mL	< 15 mg/mL	> 15 mg/mL	< 15 mg/mL	> 15 mg/mL	> 15 mg/mL	easily dissolved in various solvents
Nc1cccc(C(=O)Oc2ccc(S(=O)(=O)c3ccc(OC(=O)c4cccc(N)c4)cc3)cc2)c1 [Example 4, bis[4-(3-aminobenzoyloxy)phenyl]sulfone]	< 15 mg/mL	< 15 mg/mL	< 15 mg/mL	< 15 mg/mL	> 15 mg/mL	> 15 mg/mL	< 15 mg/mL	< 15 mg/mL	< 15 mg/mL	< 15 mg/mL	> 15 mg/mL	< 15 mg/mL	–

Continued, in another order:

solubility [1]	solubility [2]	solubility [3]	solubility [4]	solubility [5]	solubility [6]	solubility [7]	solubility [8]	solubility [9]	solubility [10]	solubility [11]	solubility [12]	Structure (SMILES)	Solubility in the various kinds of solvents (in words)
> 15 mg/mL	> 15 mg/mL	> 15 mg/mL	> 15 mg/mL	> 15 mg/mL	> 15 mg/mL	> 15 mg/mL	< 15 mg/mL	> 15 mg/mL	< 15 mg/mL	> 15 mg/mL	< 15 mg/mL	Cc1cc(OC(=O)c2cccc(N)c2)ccc1OC(=O)c1cccc(N)c1 [Example 6, 1-methyl-2,5-bis(3-aminobenzoyloxy)benzene]	–
> 15 mg/mL	> 15 mg/mL	> 15 mg/mL	> 15 mg/mL	> 15 mg/mL	> 15 mg/mL	> 15 mg/mL	< 15 mg/mL	> 15 mg/mL	< 15 mg/mL	> 15 mg/mL	< 15 mg/mL	Cc1cc(OC(=O)c2cccc(N)c2)c(C)c(C)c1OC(=O)c1cccc(N)c1 [Example 8, 1,2,4-trimethyl-3,6-bis(3-aminobenzoyloxy)benzene]	–
